Experimental findings from the supplement of paper PMC10307832 are described below.

What all share (assay): relative viability (nuclei count vs DMSO), 5 days (fraction); higher = more cells survive
Compound in the test “Pictilisib + Dasatinib”: CS(=O)(=O)N1CCN(Cc2cc3nc(-c4cccc5[nH]ncc45)nc(N4CCOCC4)c3s2)CC1 [Pictilisib] + Cc1nc(Nc2ncc(C(=O)Nc3c(C)cccc3Cl)s2)cc(N2CCN(CCO)CC2)n1 [Dasatinib] (partner 0.075 µM)
In outline: (§1)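 Nuclei were stained with Hoechst during a one-step fixation (final 0.05% Triton X-100, 1% formaldehyde, 1 ug/ml Hoechst) carried out 5 days after dosing, then counted on 4× images. The cells, lung cancer lines in 1536-well plates, had been dosed by pin tool the day after seeding with one drug alone or a fixed anchor-drug dose plus five library-drug doses (not always all listed) in √10 steps. Relative viability is the nuclei count in treated wells divided by that in vehicle wells, and each value is the median of duplicate plates.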

Compound in the test “MK-2206 + Navitoclax”: NC1(c2ccc(-c3nc4ccn5c(=O)[nH]nc5c4cc3-c3ccccc3)cc2)CCC1 [MK-2206] + CC1(C)CCC(c2ccc(Cl)cc2)=C(CN2CCN(c3ccc(C(=O)NS(=O)(=O)c4ccc(N[C@H](CCN5CCOCC5)CSc5ccccc5)c(S(=O)(=O)C(F)(F)F)c4)cc3)CC2)C1 [Navitoclax] (partner 0.5 µM)
In outline:
as §1

Compound in the test “MK-2206 + OSI-027”: NC1(c2ccc(-c3nc4ccn5c(=O)[nH]nc5c4cc3-c3ccccc3)cc2)CCC1 [MK-2206] + COc1cccc2cc(-c3nc([C@H]4CC[C@H](C(=O)O)CC4)n4ncnc(N)c34)[nH]c12 [OSI-027] (partner 0.5 µM)
In outline: as §1

Compound in the test “MK-2206 + Phenformin”: NC1(c2ccc(-c3nc4ccn5c(=O)[nH]nc5c4cc3-c3ccccc3)cc2)CCC1 [MK-2206] + N=C(N)NC(=N)NCCc1ccccc1 [Phenformin] (partner 250 µM)
In outline: as §1

Compound in the test “MK-2206 + Pemetrexed”: NC1(c2ccc(-c3nc4ccn5c(=O)[nH]nc5c4cc3-c3ccccc3)cc2)CCC1 [MK-2206] + Nc1nc2[nH]cc(CCc3ccc(C(=O)N[C@@H](CCC(=O)O)C(=O)O)cc3)c2c(=O)[nH]1 [Pemetrexed] (partner 0.2 µM)
In outline: as §1

Take LOU-NH91: the relative viability with Pictilisib + Dasatinib (first compound 0.02 µM) is 0.581; with Pictilisib + Dasatinib (first compound 0.06325 µM), 0.546; in the test with Pictilisib + Dasatinib (first compound 0.6325 µM), 0.443; in the test with Pictilisib + Dasatinib (first compound 2 µM) it was 0.359; in the test with MK-2206 + Navitoclax (first compound 0.01 µM), 0.702; in the test with MK-2206 + Navitoclax (first compound 0.03162 µM), 0.745. Moreover, the relative viability with MK-2206 + Navitoclax (first compound 0.3162 µM) came to 0.749; in the test with MK-2206 + Navitoclax (first compound 1 µM), 0.621; with MK-2206 + OSI-027 (first compound 0.01 µM) it was 0.72; with MK-2206 + OSI-027 (first compound 0.03162 µM), 0.695; in the test with MK-2206 + OSI-027 (first compound 0.3162 µM) it was 0.668; with MK-2206 + OSI-027 (first compound 1 µM), 0.555. In addition, the relative viability with MK-2206 + Phenformin (first compound 0.01 µM) was 0.682; with MK-2206 + Phenformin (first compound 0.03162 µM), 0.727; with MK-2206 + Phenformin (first compound 0.3162 µM) it was 0.683; with MK-2206 + Phenformin (first compound 1 µM) it was 0.555; in the test with MK-2206 + Pemetrexed (first compound 0.01 µM) it was 0.366; with MK-2206 + Pemetrexed (first compound 0.03162 µM), 0.406. For the same cell line, the relative viability came out at 0.345 with MK-2206 + Pemetrexed (first compound 0.3162 µM) and 0.356 with MK-2206 + Pemetrexed (first compound 1 µM).
On to LU99A, for which the relative viability with Pictilisib + Dasatinib (first compound 0.02 µM) was 0.514; with Pictilisib + Dasatinib (first compound 0.06325 µM), 0.567; in the test with Pictilisib + Dasatinib (first compound 0.6325 µM) it was 0.281; with Pictilisib + Dasatinib (first compound 2 µM), 0.204; in the test with MK-2206 + Navitoclax (first compound 0.01 µM) it was 0.862; with MK-2206 + Navitoclax (first compound 0.03162 µM), 0.77. In addition, the relative viability in the test with MK-2206 + Navitoclax (first compound 0.3162 µM) was found to be 0.72; in the test with MK-2206 + Navitoclax (first compound 1 µM) it was 0.822; with MK-2206 + OSI-027 (first compound 0.01 µM), 0.318; in the test with MK-2206 + OSI-027 (first compound 0.03162 µM), 0.335; with MK-2206 + OSI-027 (first compound 0.3162 µM), 0.219; in the test with MK-2206 + OSI-027 (first compound 1 µM), 0.283. The relative viability in the test with MK-2206 + Phenformin (first compound 0.01 µM) came out at 1.01; in the test with MK-2206 + Phenformin (first compound 0.03162 µM), 0.874; with MK-2206 + Phenformin (first compound 0.3162 µM), 0.803; with MK-2206 + Phenformin (first compound 1 µM), 0.903; in the test with MK-2206 + Pemetrexed (first compound 0.01 µM), 0.174; with MK-2206 + Pemetrexed (first compound 0.03162 µM), 0.152. Further, the figures for the relative viability with MK-2206 + Pemetrexed (first compound 0.3162 µM) and with MK-2206 + Pemetrexed (first compound 1 µM) were 0.186 and 0.203, respectively.
For the cell line LXF-289, the relative viability with Pictilisib + Dasatinib (first compound 0.02 µM) came to 0.189; with Pictilisib + Dasatinib (first compound 0.06325 µM), 0.212; with Pictilisib + Dasatinib (first compound 0.6325 µM), 0.104; with Pictilisib + Dasatinib (first compound 2 µM), 0.0692; with MK-2206 + Navitoclax (first compound 0.01 µM), 0.914; with MK-2206 + Navitoclax (first compound 0.03162 µM), 1.01. For the same cell line, the relative viability is 1.01 in the test with MK-2206 + Navitoclax (first compound 0.3162 µM); 0.972 in the test with MK-2206 + Navitoclax (first compound 1 µM); 0.782 in the test with MK-2206 + OSI-027 (first compound 0.01 µM); 0.862 with MK-2206 + OSI-027 (first compound 0.03162 µM); 0.604 with MK-2206 + OSI-027 (first compound 0.3162 µM); 0.743 with MK-2206 + OSI-027 (first compound 1 µM). Further, the relative viability with MK-2206 + Phenformin (first compound 0.01 µM) worked out at 0.506; with MK-2206 + Phenformin (first compound 0.03162 µM) it was 0.542; with MK-2206 + Phenformin (first compound 0.3162 µM) it was 0.542; in the test with MK-2206 + Phenformin (first compound 1 µM) it was 0.548; in the test with MK-2206 + Pemetrexed (first compound 0.01 µM) it was 0.886; with MK-2206 + Pemetrexed (first compound 0.03162 µM) it was 0.873. The relative viability in the test with MK-2206 + Pemetrexed (first compound 0.3162 µM) was 0.956; with MK-2206 + Pemetrexed (first compound 1 µM), 1.17.
In the case of NCI-H23, the relative viability with Pictilisib + Dasatinib (first compound 0.02 µM) was 0.864; in the test with Pictilisib + Dasatinib (first compound 0.06325 µM), 0.863; in the test with Pictilisib + Dasatinib (first compound 0.6325 µM) it was 0.487; with Pictilisib + Dasatinib (first compound 2 µM), 0.234; with MK-2206 + Navitoclax (first compound 0.01 µM), 0.956; with MK-2206 + Navitoclax (first compound 0.03162 µM), 0.899. Besides, the relative viability with MK-2206 + Navitoclax (first compound 0.3162 µM) was found to be 0.947; in the test with MK-2206 + Navitoclax (first compound 1 µM), 0.811; with MK-2206 + OSI-027 (first compound 0.01 µM) it was 0.646; with MK-2206 + OSI-027 (first compound 0.03162 µM) it was 0.503; in the test with MK-2206 + OSI-027 (first compound 0.3162 µM), 0.455; in the test with MK-2206 + OSI-027 (first compound 1 µM) it was 0.337. For the same cell line, the relative viability amounted to 0.688 with MK-2206 + Phenformin (first compound 0.01 µM); 0.844 with MK-2206 + Phenformin (first compound 0.03162 µM); 0.673 with MK-2206 + Phenformin (first compound 0.3162 µM); 0.666 with MK-2206 + Phenformin (first compound 1 µM); 0.713 with MK-2206 + Pemetrexed (first compound 0.01 µM); 0.559 with MK-2206 + Pemetrexed (first compound 0.03162 µM). Besides, the relative viability with MK-2206 + Pemetrexed (first compound 0.3162 µM) turned out to be 0.651; in the test with MK-2206 + Pemetrexed (first compound 1 µM), 0.64.
With NCI-H322M, the relative viability with Pictilisib + Dasatinib (first compound 0.02 µM) came out at 0.226; with Pictilisib + Dasatinib (first compound 0.06325 µM) it was 0.253; with Pictilisib + Dasatinib (first compound 0.6325 µM), 0.271; with Pictilisib + Dasatinib (first compound 2 µM) it was 0.243; with MK-2206 + Navitoclax (first compound 0.01 µM) it was 1.14; in the test with MK-2206 + Navitoclax (first compound 0.03162 µM), 1.13. Moreover, the relative viability came to 1.25 with MK-2206 + Navitoclax (first compound 0.3162 µM); 1.1 with MK-2206 + Navitoclax (first compound 1 µM); 0.484 in the test with MK-2206 + OSI-027 (first compound 0.01 µM); 0.49 in the test with MK-2206 + OSI-027 (first compound 0.03162 µM); 0.386 with MK-2206 + OSI-027 (first compound 0.3162 µM); 0.377 with MK-2206 + OSI-027 (first compound 1 µM). Besides, the relative viability is 0.756 with MK-2206 + Phenformin (first compound 0.01 µM); 0.822 in the test with MK-2206 + Phenformin (first compound 0.03162 µM); 0.725 in the test with MK-2206 + Phenformin (first compound 0.3162 µM); 0.769 with MK-2206 + Phenformin (first compound 1 µM); 0.64 in the test with MK-2206 + Pemetrexed (first compound 0.01 µM); 0.634 with MK-2206 + Pemetrexed (first compound 0.03162 µM). For the same cell line, the relative viability with MK-2206 + Pemetrexed (first compound 0.3162 µM) turned out to be 0.666; with MK-2206 + Pemetrexed (first compound 1 µM), 0.679.
For the cell line NCI-H441, the relative viability with Pictilisib + Dasatinib (first compound 0.02 µM) came to 0.639; with Pictilisib + Dasatinib (first compound 0.06325 µM), 0.528; with Pictilisib + Dasatinib (first compound 0.6325 µM) it was 0.352; in the test with Pictilisib + Dasatinib (first compound 2 µM), 0.256; with MK-2206 + Navitoclax (first compound 0.01 µM), 0.77; with MK-2206 + Navitoclax (first compound 0.03162 µM), 0.639. For the same cell line, the relative viability with MK-2206 + Navitoclax (first compound 0.3162 µM) worked out at 0.6; with MK-2206 + Navitoclax (first compound 1 µM), 0.505; with MK-2206 + OSI-027 (first compound 0.01 µM), 0.922; with MK-2206 + OSI-027 (first compound 0.03162 µM) it was 0.473; with MK-2206 + OSI-027 (first compound 0.3162 µM), 0.428; in the test with MK-2206 + OSI-027 (first compound 1 µM) it was 0.393. Moreover, the relative viability in the test with MK-2206 + Phenformin (first compound 0.01 µM) was determined as 0.974; in the test with MK-2206 + Phenformin (first compound 0.03162 µM) it was 0.865; in the test with MK-2206 + Phenformin (first compound 0.3162 µM), 0.656; with MK-2206 + Phenformin (first compound 1 µM) it was 0.449; with MK-2206 + Pemetrexed (first compound 0.01 µM) it was 0.256; with MK-2206 + Pemetrexed (first compound 0.03162 µM), 0.238. In addition, the relative viability in the test with MK-2206 + Pemetrexed (first compound 0.3162 µM) was determined as 0.255; in the test with MK-2206 + Pemetrexed (first compound 1 µM) it was 0.249.
